Test [1] has as its system Staphylococcus aureus. Kind of test: Antibacterial activity against Staphylococcus aureus MTCC 96 assessed as bacterial growth inhibition incubated for 24 hrs by broth microdilution method. The class given is functional.
Test [2] has as its system Staphylococcus aureus. Put plainly: Antibacterial activity against Staphylococcus aureus MLS-16 MTCC 2940 assessed as minimum bactericidal concentration incubated for 24 hrs by broth microdilution method. Type of test: functional.
Test [3] relates to Staphylococcus aureus. Kind of test: Antibiofilm activity against Staphylococcus aureus MLS-16 MTCC 2940 assessed as inhibition of biofilm incubated for 24 hrs by crystal violet staining based spectrophotometry. Type of test: functional, organism-based. The conditions noted are these: MLS-16 MTCC 2940, 24 h.
The subject of test [4] is Raoultella planticola. Kind of test: Antibacterial activity against Raoultella planticola MTCC 530 assessed as minimum bactericidal concentration incubated for 24 hrs by broth microdilution method. Type of test: functional. As to conditions: Klebsiella planticola.
Test [5] relates to Micrococcus luteus. Kind of test: Antibiofilm activity against Micrococcus luteus MTCC 2470 assessed as inhibition of biofilm incubated for 24 hrs by crystal violet staining based spectrophotometry. Type of test: functional, organism-based. As to conditions: MTCC 2470, 24 h.
For test [6], the system named is Candida albicans. Kind of test: Antifungal activity against Candida albicans MTCC 854 assessed as inhibition of fungal growth incubated for 24 hrs by agar well diffusion method. Type of test: functional.
Test [7] deals with Candida albicans. Put plainly: Antifungal activity against Candida albicans MTCC 227 assessed as inhibition of fungal growth incubated for 24 hrs by agar well diffusion method. The class given is functional.
The test system of test [8] is Staphylococcus aureus. Put plainly: Antibiofilm activity against Staphylococcus aureus MTCC 96 assessed as inhibition of biofilm incubated for 24 hrs by crystal violet staining based spectrophotometry. Type of test: functional, organism-based. As to conditions: MTCC 96, 24 h.
In test [9] the test system is Staphylococcus aureus. Kind of test: Antibacterial activity against Staphylococcus aureus MLS-16 MTCC 2940 assessed as bacterial growth inhibition incubated for 24 hrs by broth microdilution method. The class given is functional.
Test [10] concerns Pichia kudriavzevii. Put plainly: Antifungal activity against Candida krusei MTCC 3020 assessed as inhibition of fungal growth incubated for 24 hrs by agar well diffusion method. The class given is functional.
In test [11] the test system is Raoultella planticola. Put plainly: Antibiofilm activity against Raoultella planticola MTCC 530 assessed as inhibition of biofilm incubated for 24 hrs by crystal violet staining based spectrophotometry. Type of test: functional, organism-based. The conditions noted are these: Klebsiella planticola, MTCC 530, 24 h.
In test [12] the test system is Raoultella planticola. Put plainly: Antibacterial activity against Raoultella planticola MTCC 530 assessed as bacterial growth inhibition incubated for 24 hrs by broth microdilution method. Type of test: functional. The conditions noted are these: Klebsiella planticola.
Test [13] relates to Pichia sporocuriosa. Put plainly: Antifungal activity against Pichia sporocuriosa MTCC 4755 assessed as inhibition of fungal growth incubated for 24 hrs by agar well diffusion method. Type of test: functional.
The subject of test [14] is Nakaseomyces glabratus. Kind of test: Antifungal activity against Candida glabrata MTCC 3019 assessed as inhibition of fungal growth incubated for 24 hrs by agar well diffusion method. Type of test: functional.
Test [15] relates to Candida parapsilosis. Kind of test: Antifungal activity against Candida parapsilosis MTCC 1744 assessed as inhibition of fungal growth incubated for 24 hrs by agar well diffusion method. Type of test: functional. The conditions noted are these: Lodderomyces parapsilosis.
Test [16] deals with Candida albicans. Put plainly: Antifungal activity against Candida albicans MTCC 183 assessed as inhibition of fungal growth incubated for 24 hrs by agar well diffusion method. The class given is functional.
In test [17] the test system is Escherichia coli. Put plainly: Antibacterial activity against Escherichia coli MTCC 739 assessed as minimum bactericidal concentration incubated for 24 hrs by broth microdilution method. The class given is functional.
Test [18] deals with Candida albicans. Kind of test: Antifungal activity against Candida albicans MTCC 1637 assessed as inhibition of fungal growth incubated for 24 hrs by agar well diffusion method. Type of test: functional.
Test [19] relates to Escherichia coli. Kind of test: Antibiofilm activity against Escherichia coli MTCC 739 assessed as inhibition of biofilm incubated for 24 hrs by crystal violet staining based spectrophotometry. The class given is functional, organism-based. As to conditions: MTCC 739, 24 h.
The subject of test [20] is Bacillus subtilis. Put plainly: Antibiofilm activity against Bacillus subtilis MTCC 121 assessed as inhibition of biofilm incubated for 24 hrs by crystal violet staining based spectrophotometry. The class given is functional, organism-based. The conditions noted are these: MTCC 121, 24 h.
The subject of test [21] is Staphylococcus aureus. Kind of test: Antibacterial activity against Staphylococcus aureus MTCC 96 assessed as minimum bactericidal concentration incubated for 24 hrs by broth microdilution method. The class given is functional.
In test [22] the test system is Escherichia coli. Kind of test: Antibacterial activity against Escherichia coli MTCC 739 assessed as bacterial growth inhibition incubated for 24 hrs by broth microdilution method. Type of test: functional.
For test [23], the system named is Micrococcus luteus. Put plainly: Antibacterial activity against Micrococcus luteus MTCC 2470 assessed as minimum bactericidal concentration incubated for 24 hrs by broth microdilution method. The class given is functional.
The subject of test [24] is Bacillus subtilis. Put plainly: Antibacterial activity against Bacillus subtilis MTCC 121 assessed as bacterial growth inhibition incubated for 24 hrs by broth microdilution method. Type of test: functional.
For test [25], the system named is Micrococcus luteus. Put plainly: Antibacterial activity against Micrococcus luteus MTCC 2470 assessed as bacterial growth inhibition incubated for 24 hrs by broth microdilution method. The class given is functional.
In test [26] the test system is Bacillus subtilis. Kind of test: Antibacterial activity against Bacillus subtilis MTCC 121 assessed as minimum bactericidal concentration incubated for 24 hrs by broth microdilution method. Type of test: functional.
Test [27] deals with Klebsiella pneumoniae. Put plainly: Antimicrobial activity against Klebsiella pneumoniae ATCC 15380 assessed as diameter of inhibition zone at 20 mg/ml incubated for 24 hrs by disk diffusion method. Type of test: functional. As to conditions: read-out: DIZ.
Test [28] deals with Citrobacter freundii. Put plainly: Antimicrobial activity against Citrobacter freundii ATCC 8090 assessed as diameter of inhibition zone at 20 mg/ml incubated for 24 hrs by disk diffusion method. The class given is functional. The conditions noted are these: read-out: DIZ.
The subject of test [29] is Salmonella typhimurium. Put plainly: Antimicrobial activity against Salmonella typhimurium ATCC 19430 assessed as diameter of inhibition zone at 20 mg/ml incubated for 24 hrs by disk diffusion method. The class given is functional, Salmonella enterica subsp. enterica serovar Typhimurium. As to conditions: Salmonella enterica, read-out: DIZ.
Test [30] concerns Pseudomonas aeruginosa. Put plainly: Antimicrobial activity against Pseudomonas aeruginosa ATCC 27853 assessed as diameter of inhibition zone at 20 mg/ml incubated for 24 hrs by disk diffusion method. Type of test: functional. As to conditions: read-out: DIZ.
For test [31], the system named is Escherichia coli. Put plainly: Antimicrobial activity against Escherichia coli ATCC 25922 assessed as diameter of inhibition zone at 20 mg/ml incubated for 24 hrs by disk diffusion method. The conditions noted are these: read-out: DIZ. The class given is functional.
Test [32] concerns the target Polyunsaturated fatty acid 5-lipoxygenase (Homo sapiens, UniProt P09917). Put plainly: Inhibition of 5-LOX (unknown origin) by colorimetric analysis.
Test [33] is described as follows: cells. As to conditions: Homo sapiens, Macrophage.
The subject of test [34] is Bacillus cereus. Put plainly: Antibacterial activity against Bacillus cereus assessed as diameter of inhibition zone by disc diffusion method. The class given is functional.
Test [35] has as its system Serratia marcescens. Kind of test: Antibacterial activity against Serratia marcescens assessed as diameter of inhibition zone by disc diffusion method. Type of test: functional.
Test [36] concerns Penicillium chrysogenum. Kind of test: Antifungal activity against Penicillium chrysogenum assessed as diameter of inhibition zone by disc diffusion method. Type of test: functional.
In test [37] the test system is Aspergillus ochraceus. Kind of test: Antifungal activity against Aspergillus ochraceus assessed as diameter of inhibition zone by disc diffusion method. Type of test: functional.
A short description of test [38]: Antioxidant activity assessed as DPPH radical scavenging activity incubated for 20 mins by spectrophotometric analysis. The arrangement: concentration or dose not given beside the values. The class given is functional.
Test [39] is filed under the species Capra hircus. Kind of test: Inhibition of goat lens AR assessed as gibbs binding free energy.
The species entered for test [40] is Capra hircus. Kind of test: Inhibition of goat lens AR at 100 uM incubated for 10 mins in presence of NADPH by spectroscopic analysis.
Test [41] in a line: Antioxidant activity assessed as hydroxyl radical scavenging activity incubated for 5 mins by spectrophotometric analysis. Type of test: functional. The arrangement: concentration or dose not given beside the values.
Test [42] is described as follows: Antioxidant activity assessed as trolox equivalent of ABTS radical scavenging activity and measured after 6 mins by UV-vis spectrophotometry. The class given is functional.

Values after ≈ are worked out from the molar mass of the structure shown.

Polyunsaturated fatty acid 5-lipoxygenase, sequence (P09917 whole entry): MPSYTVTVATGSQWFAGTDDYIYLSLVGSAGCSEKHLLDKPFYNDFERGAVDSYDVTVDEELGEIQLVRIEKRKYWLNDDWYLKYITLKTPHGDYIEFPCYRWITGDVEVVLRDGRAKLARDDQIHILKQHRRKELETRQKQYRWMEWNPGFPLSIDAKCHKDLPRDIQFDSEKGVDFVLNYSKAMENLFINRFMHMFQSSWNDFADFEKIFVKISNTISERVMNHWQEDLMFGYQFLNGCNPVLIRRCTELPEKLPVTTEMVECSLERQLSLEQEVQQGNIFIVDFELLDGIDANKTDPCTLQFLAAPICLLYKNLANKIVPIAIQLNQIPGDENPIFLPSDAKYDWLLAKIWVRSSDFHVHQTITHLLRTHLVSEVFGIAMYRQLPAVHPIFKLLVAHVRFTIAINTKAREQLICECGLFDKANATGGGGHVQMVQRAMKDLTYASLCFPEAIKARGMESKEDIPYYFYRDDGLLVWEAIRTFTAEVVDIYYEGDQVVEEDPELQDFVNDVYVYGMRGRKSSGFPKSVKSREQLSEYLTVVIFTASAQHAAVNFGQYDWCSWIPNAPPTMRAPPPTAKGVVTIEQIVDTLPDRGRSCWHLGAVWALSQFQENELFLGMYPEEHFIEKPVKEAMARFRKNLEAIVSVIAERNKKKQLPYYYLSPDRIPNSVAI

Take `COc1ccc(Nc2ncnc3c2C(c2ccc(OC)cc2)c2c(cc(C)oc2=O)O3)cc1` (configuration not stated): the MIC in test [1] turned out to be 15.6 µg/mL (≈ 35.2 µM); in test [6] it was 7.8 µg/mL (≈ 17.6 µM); in [7], 7.8 µg/mL (≈ 17.6 µM); in test [9], 15.6 µg/mL (≈ 35.2 µM); in test [10], 7.8 µg/mL (≈ 17.6 µM); in [12], 7.8 µg/mL (≈ 17.6 µM). Besides, the MIC in test [13], in [14], in test [15], in [16], in test [18] and in test [22] was 7.8 µg/mL (≈ 17.6 µM) throughout. Besides, the minimum inhibitory concentration (MIC) in test [24] turned out to be 7.8 µg/mL (≈ 17.6 µM); in [25], 15.6 µg/mL (≈ 35.2 µM). Further, the minimal bactericidal concentration (MBC) in [2], in test [4], in [17], in [21], in [23] and in test [26] was 7.8 µg/mL (≈ 17.6 µM) in each case. The IC50 in test [3], in [5], in test [8], in test [11], in test [19] and in test [20] was 2500 nM in each case.

As for `Cc1csc(C2C(C#N)=C(N)Oc3[nH]c(=O)[nH]c(=O)c32)c1` (configuration not stated), the zone of inhibition at 20000 µg/mL in [27] is 16 mm; in [28], 12 mm; in test [29], 20 mm; in test [30] it was 18 mm; in [31] it was 14 mm.

Take `N=c1c2c(ncn1-c1ccccc1)Oc1[nH]c(=S)[nH]c(=O)c1C2c1ccc(Cl)cc1` (configuration not stated): the IC50 stood at 1930 nM in [32] and 3500 nM in [33].

For the molecule `CCOC(=O)c1nc2c3c(ncn2n1)Oc1ccc2cc(Br)ccc2c1C3`, the “diameter of the inhibition zone (DIZ)” value is given as 23 mm in test [34], 24 mm in test [35], 22 mm in test [36] and 17 mm in test [37].

Consider `Cc1nn(-c2ccccc2)c(Cl)c1C1c2[nH]c(=O)[nH]c(=O)c2Oc2c1c(=O)oc1ccccc21` (configuration not stated), for which the Activity in test [38] was 59.1%; in test [41] it was 54.3%. The deltaG in [39] is -10.4 kcal/mol. Besides, in test [40], the inhibition was found to be 60%.

Take `CCOC(=O)C1=C(N)Oc2[nH]c(=O)[nH]c(=O)c2C1[C@H](O)[C@@H](O)[C@H](O[C@H]1O[C@H](CO)[C@@H](O)[C@H](O)[C@H]1O)[C@H](O)CO` (some centres not stated): in test [42], the Activity was 5.24 µM.

These data come from ChEMBL document CHEMBL5241112, “Insights into the recent progress in the medicinal chemistry of pyranopyrimidine analogs” (RSC Med Chem, 2022).
